Values of other authors in paper PMC13566764 (International Journal of Molecular Sciences, 2026).

Set-up: method as in https://pubchem.ncbi.nlm.nih.gov
Details: ref https://pubchem.ncbi.nlm.nih.gov

For `O=C1NC(=O)C(c2ccccc2)(c2ccccc2)N1` [Phenytoin, phenytoin], which pKa is on record?
Its pKa is 8.33.
